Results reported in PubChem BioAssay (NCI).
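Growth conditions: 96-well plates. Treatment: test compound, 48 hours, 5 concentrations. Analysis: linear interpolation between bracketing concentrations; unreached endpoints set to highest concentration. TGI: concentration producing complete growth inhibition.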

Key:
Experiment in all cases: NCI-60 cell line screen, 48 h
CAKI-1 renal = system: CAKI-1 renal
SNB-19 CNS = system: SNB-19 CNS
NCI-H522 lung = system: NCI-H522 lung
SK-OV-3 ovarian = system: SK-OV-3 ovarian
A498 renal = system: A498 renal
SK-MEL-2 melanoma = system: SK-MEL-2 melanoma
SF-268 CNS = system: SF-268 CNS
TK-10 renal = system: TK-10 renal
NCI-H460 lung = system: NCI-H460 lung
OVCAR-3 ovarian = system: OVCAR-3 ovarian
PC-3 prostate = system: PC-3 prostate
SN12C renal = system: SN12C renal
T-47D breast = system: T-47D breast
MOLT-4 leukemia = system: MOLT-4 leukemia
BT-549 breast = system: BT-549 breast
MCF7 breast = system: MCF7 breast
HOP-92 NSCLC = system: HOP-92 NSCLC
OVCAR-4 ovarian = system: OVCAR-4 ovarian
SF-295 CNS = system: SF-295 CNS
A549 NSCLC = system: A549 NSCLC
NCI-H226 lung = system: NCI-H226 lung
HOP-62 NSCLC = system: HOP-62 NSCLC
ACHN renal = system: ACHN renal
K-562 leukemia = system: K-562 leukemia
NCI/ADR-RES ovarian = system: NCI/ADR-RES ovarian
MDA-N = system: MDA-N
UO-31 renal = system: UO-31 renal
RPMI-8226 leukemia = system: RPMI-8226 leukemia
HCT-116 colon = system: HCT-116 colon
UACC-62 melanoma = system: UACC-62 melanoma
KM12 colon = system: KM12 colon
SK-MEL-28 melanoma = system: SK-MEL-28 melanoma
UACC-257 melanoma = system: UACC-257 melanoma
U251 CNS = system: U251 CNS
COLO 205 colon = system: COLO 205 colon
DU-145 prostate = system: DU-145 prostate
SK-MEL-5 melanoma = system: SK-MEL-5 melanoma
NCI-H23 lung = system: NCI-H23 lung
MDA-MB-435 = system: MDA-MB-435
SNB-75 CNS = system: SNB-75 CNS
HCC-2998 colon = system: HCC-2998 colon
MALME-3M melanoma = system: MALME-3M melanoma
HCT-15 colon = system: HCT-15 colon
M14 melanoma = system: M14 melanoma
786-0 renal = system: 786-0 renal
MDA-MB-231 breast = system: MDA-MB-231 breast
EKVX NSCLC = system: EKVX NSCLC
SF-539 CNS = system: SF-539 CNS
OVCAR-8 ovarian = system: OVCAR-8 ovarian
IGROV1 ovarian = system: IGROV1 ovarian
RXF 393 renal = system: RXF 393 renal
LOX IMVI melanoma = system: LOX IMVI melanoma
SW-620 colon = system: SW-620 colon
OVCAR-5 ovarian = system: OVCAR-5 ovarian
CCRF-CEM leukemia = system: CCRF-CEM leukemia
HL-60(TB) leukemia = system: HL-60(TB) leukemia
HT29 colon = system: HT29 colon
HS 578T breast = system: HS 578T breast

For `C=CCOC(=O)C1=C(CCC[C@@H](C)O[Si](C)(C)C(C)(C)C)N=C(N)N2[C@H](CCO)CC[C@@H]12`, the TGI (CAKI-1 renal) was 26.1 µM, the TGI (SNB-19 CNS) was 29 µM and the TGI (NCI-H522 lung) was 25.2 µM. For the same compound, the TGI (SK-OV-3 ovarian) was 27.2 µM, the TGI (A498 renal) was 35.7 µM and the TGI (SK-MEL-2 melanoma) was 30.3 µM. The TGI (SF-268 CNS) was 31 µM, the TGI (TK-10 renal) was 34.3 µM and the TGI (NCI-H460 lung) was 31.5 µM. For the same compound, the TGI (OVCAR-3 ovarian) was 23.5 µM, the TGI (PC-3 prostate) was 20.8 µM and the TGI (SN12C renal) was 31.7 µM. The TGI (T-47D breast) was 28.9 µM, the TGI (MOLT-4 leukemia) was 24.9 µM and the TGI (BT-549 breast) was 36.5 µM. The TGI (MCF7 breast) was 25.7 µM, the TGI (HOP-92 NSCLC) was 27.2 µM and the TGI (OVCAR-4 ovarian) was 23.2 µM. It also gave a TGI (SF-295 CNS) of 25.2 µM, a TGI (A549 NSCLC) of 22 µM and a TGI (NCI-H226 lung) of 33.9 µM. It also gave a TGI (HOP-62 NSCLC) of 27.4 µM, a TGI (ACHN renal) of 40.1 µM and a TGI (K-562 leukemia) of 21.5 µM. For the same compound, the TGI (NCI/ADR-RES ovarian) was 35 µM, the TGI (MDA-N) was 32.9 µM and the TGI (UO-31 renal) was 29.6 µM. For the same compound, the TGI (RPMI-8226 leukemia) was 27.6 µM, the TGI (HCT-116 colon) was 28.6 µM and the TGI (UACC-62 melanoma) was 33 µM. It also gave a TGI (KM12 colon) of 24.1 µM, a TGI (SK-MEL-28 melanoma) of 31.3 µM and a TGI (UACC-257 melanoma) of 38.7 µM. The TGI (U251 CNS) was 24.7 µM, the TGI (COLO 205 colon) was 22.9 µM and the TGI (DU-145 prostate) was 28.6 µM. For the same compound, the TGI (SK-MEL-5 melanoma) was 24.9 µM, the TGI (NCI-H23 lung) was 32.4 µM and the TGI (MDA-MB-435) was 27.8 µM. The TGI (SNB-75 CNS) was 32.5 µM, the TGI (HCC-2998 colon) was 35.5 µM and the TGI (MALME-3M melanoma) was 34.9 µM. For the same compound, the TGI (HCT-15 colon) was 32.5 µM, the TGI (M14 melanoma) was 27.6 µM and the TGI (786-0 renal) was 33.8 µM. For the same compound, the TGI (MDA-MB-231 breast) was 29.6 µM.
`Brc1ccc2c(c1)-c1nc3nc4c(cc3cc1CC2)CCc1ccc(Br)cc1-4` gave a TGI (CAKI-1 renal) greater than 100 µM, a TGI (SNB-19 CNS) greater than 100 µM and a TGI (NCI-H522 lung) greater than 100 µM. For the same compound, the TGI (SK-OV-3 ovarian) was greater than 100 µM, the TGI (A498 renal) was greater than 100 µM and the TGI (SK-MEL-2 melanoma) was greater than 100 µM. For the same compound, the TGI (SF-268 CNS) was greater than 100 µM, the TGI (TK-10 renal) was greater than 100 µM and the TGI (NCI-H460 lung) was greater than 100 µM. It also gave a TGI (OVCAR-3 ovarian) greater than 100 µM, a TGI (PC-3 prostate) greater than 100 µM and a TGI (SN12C renal) greater than 100 µM. For the same compound, the TGI (T-47D breast) was greater than 100 µM, the TGI (MOLT-4 leukemia) was greater than 100 µM and the TGI (BT-549 breast) was greater than 100 µM. The TGI (MCF7 breast) was greater than 100 µM, the TGI (HOP-92 NSCLC) was greater than 100 µM and the TGI (OVCAR-4 ovarian) was greater than 100 µM. It also gave a TGI (EKVX NSCLC) greater than 100 µM, a TGI (SF-295 CNS) greater than 100 µM and a TGI (SF-539 CNS) greater than 100 µM. For the same compound, the TGI (A549 NSCLC) was greater than 100 µM, the TGI (NCI-H226 lung) was greater than 100 µM and the TGI (HOP-62 NSCLC) was greater than 100 µM. It also gave a TGI (OVCAR-8 ovarian) greater than 100 µM, a TGI (ACHN renal) greater than 100 µM and a TGI (K-562 leukemia) greater than 100 µM. The TGI (IGROV1 ovarian) was greater than 100 µM, the TGI (NCI/ADR-RES ovarian) was greater than 100 µM and the TGI (MDA-N) was greater than 100 µM. It also gave a TGI (UO-31 renal) greater than 100 µM, a TGI (RPMI-8226 leukemia) greater than 100 µM and a TGI (RXF 393 renal) greater than 100 µM. The TGI (HCT-116 colon) was greater than 100 µM, the TGI (LOX IMVI melanoma) was greater than 100 µM and the TGI (KM12 colon) was greater than 100 µM. The TGI (SW-620 colon) was greater than 100 µM, the TGI (SK-MEL-28 melanoma) was greater than 100 µM and the TGI (UACC-257 melanoma) was greater than 100 µM. For the same compound, the TGI (U251 CNS) was greater than 100 µM, the TGI (COLO 205 colon) was greater than 100 µM and the TGI (SK-MEL-5 melanoma) was greater than 100 µM. It also gave a TGI (OVCAR-5 ovarian) greater than 100 µM, a TGI (NCI-H23 lung) greater than 100 µM and a TGI (MDA-MB-435) greater than 100 µM. For the same compound, the TGI (SNB-75 CNS) was greater than 100 µM, the TGI (HCC-2998 colon) was greater than 100 µM and the TGI (MALME-3M melanoma) was greater than 100 µM. The TGI (HCT-15 colon) was greater than 100 µM, the TGI (M14 melanoma) was greater than 100 µM and the TGI (786-0 renal) was greater than 100 µM. It also gave a TGI (MDA-MB-231 breast) greater than 100 µM.
`COC(=O)C1=C(OC(=O)/C=C/c2ccc(Cl)cc2)C(C(=O)OC)[C@@]2(O)[C@@H](C(=O)OC)[C@H](C)C[C@@H]1[C@@H]2C(=O)OC` (stereo not given in full) gave a TGI (CAKI-1 renal) of 87.3 µM, a TGI (SNB-19 CNS) greater than 100 µM and a TGI (NCI-H522 lung) of 23.1 µM. For the same compound, the TGI (SK-OV-3 ovarian) was greater than 100 µM, the TGI (SK-MEL-2 melanoma) was 37 µM and the TGI (SF-268 CNS) was 42.9 µM. It also gave a TGI (TK-10 renal) greater than 100 µM, a TGI (NCI-H460 lung) greater than 100 µM and a TGI (OVCAR-3 ovarian) greater than 100 µM. It also gave a TGI (PC-3 prostate) of 69 µM, a TGI (SN12C renal) of 45.7 µM and a TGI (T-47D breast) greater than 100 µM. It also gave a TGI (MOLT-4 leukemia) of 96.4 µM, a TGI (BT-549 breast) of 53.7 µM and a TGI (OVCAR-4 ovarian) greater than 100 µM. The TGI (EKVX NSCLC) was 71.8 µM, the TGI (SF-295 CNS) was greater than 100 µM and the TGI (SF-539 CNS) was greater than 100 µM. It also gave a TGI (A549 NSCLC) greater than 100 µM, a TGI (NCI-H226 lung) of 61 µM and a TGI (HOP-62 NSCLC) greater than 100 µM. For the same compound, the TGI (OVCAR-8 ovarian) was 41.6 µM, the TGI (ACHN renal) was 80 µM and the TGI (K-562 leukemia) was greater than 100 µM. The TGI (IGROV1 ovarian) was 23.1 µM, the TGI (NCI/ADR-RES ovarian) was 64.6 µM and the TGI (MDA-N) was 29.5 µM. The TGI (UO-31 renal) was 57.1 µM, the TGI (RXF 393 renal) was greater than 100 µM and the TGI (HCT-116 colon) was 58.3 µM. For the same compound, the TGI (LOX IMVI melanoma) was 37.7 µM, the TGI (UACC-62 melanoma) was 54.1 µM and the TGI (KM12 colon) was greater than 100 µM. For the same compound, the TGI (SW-620 colon) was greater than 100 µM, the TGI (SK-MEL-28 melanoma) was 88.7 µM and the TGI (UACC-257 melanoma) was greater than 100 µM. It also gave a TGI (U251 CNS) greater than 100 µM, a TGI (CCRF-CEM leukemia) of 64.8 µM and a TGI (COLO 205 colon) of 40.7 µM. It also gave a TGI (DU-145 prostate) greater than 100 µM, a TGI (SK-MEL-5 melanoma) of 32.2 µM and a TGI (OVCAR-5 ovarian) of 81.7 µM. The TGI (NCI-H23 lung) was 46 µM, the TGI (HL-60(TB) leukemia) was 36.1 µM and the TGI (MDA-MB-435) was greater than 100 µM. The TGI (SNB-75 CNS) was greater than 100 µM, the TGI (MALME-3M melanoma) was 38.2 µM and the TGI (HT29 colon) was 65.8 µM. It also gave a TGI (HCT-15 colon) of 57 µM, a TGI (HS 578T breast) of 15.5 µM and a TGI (M14 melanoma) greater than 100 µM. For the same compound, the TGI (MDA-MB-231 breast) was 64.9 µM.
